Measurements: BigSolDB 2.1

c1ccc2c(c1)Cc1ccccc1-2
solubility (mole fraction)
Conditions | in acetone | in benzene | in chloroform | in isobutanol | in n-propanol | in toluene
283 K | 0.0445 | 0.0883 | 0.0893 | 0.00425 | 0.00817 | 0.063
288 K | 0.049 | 0.0982 | 0.102 | 0.00544 | 0.00903 | 0.0809
293 K | 0.0558 | 0.109 | 0.114 | 0.00691 | 0.0115 | 0.0967
298 K | 0.0687 | 0.126 | 0.132 | – | – | 0.124
298.4 K | – | – | – | 0.00902 | 0.0134 | –
303 K | – | – | – | – | – | 0.152
303.1 K | 0.0793 | – | 0.153 | – | – | –
303.2 K | – | 0.143 | – | 0.0121 | 0.0163 | –
308 K | – | 0.158 | – | 0.0156 | 0.0188 | 0.195
308.2 K | 0.0907 | – | 0.173 | – | – | –
313 K | 0.104 | 0.183 | 0.195 | 0.0192 | 0.0215 | 0.25
318 K | 0.12 | 0.209 | 0.22 | 0.023 | 0.0248 | 0.3
323 K | 0.14 | 0.235 | 0.25 | 0.0267 | 0.0289 | 0.37
